What was measured:
[1] = Uptake experiment: diPAP mixture by oral gavage, analytes in whole blood; type: in vivo, Sprague-Dawley rats; details: for Half-life / Tmax / Cmax: diPAP gavage dose, whole blood; for Half-life: about 50 mg/kg each; for Half-life / Cmax: mean ± SE; for Cmax: values in parentheses < LOQ but > LOD
Method: (§1) This research was conducted under an animal use protocol approved by the University of Toronto Animal Care Committee. All animals were treated humanely and with regard for alleviation of suffering. Sprague-Dawley rats were obtained from Charles River Laboratories Inc. (Sherbrooke, QC, Canada) The animals were singly housed and exposed to a 12/12 hr light/dark cycle with food and water available ad libitum. Blood samples were collected from the saphenous vein using Microvette CB 300 vials (Sarstedt AG & Co., Montreal, QC, Canada) embedded with lithium-heparin as an anticoagulant. Whole-blood samples were stored at −20°C, and urine and feces samples were stored at 4°C.
(§2) Two groups of four 8-week-old male rats were administered a mixture of 4:2, 6:2, 8:2, and 10:2 diPAP or monoPAP, respectively, each at about 50 mg/kg, at 4 mL/kg by oral gavage without prior fasting. […] Two control male rats were administered clean vehicle at 4 mL/kg [for details, see Supplemental Material, Table 3 (doi:10.1289/ehp.1002409)].
(§3) Blood was collected from all animals 3 days before dosing to establish background contamination. For the uptake experiment, blood samples were collected at 1, 3, and 6 hr and 1, 2, 4, 7, 10, 14, 18, and 22 days after dosing. For the elimination experiment, blood samples were collected at 2, 4, and 6 hr and 1, 2, 4, 8, 11, 15, and 18 days after dosing. On the final sampling day, the animals were sacrificed by carbon dioxide asphyxiation, and about 10 mL of blood was collected by cardiac puncture into a BD Vacutainer embedded with lithium-heparin.
(§4) The compounds of interest fall into four categories: a) the diPAP and monoPAP parent compounds, b) the saturated and unsaturated fluorotelomer carboxylic acid (FTCA and FTUCA) metabolic intermediates, c) the FTOH-sulfate and FTOH-glucuronide phase II metabolites, and d) the final PFCA biotransformation products [see Supplemental Material, Table 1 (doi:10.1289/ehp.1002409)]. We analyzed these compounds in whole blood, urine, and feces samples. For full analytical details, see Supplemental Material. All PFCAs, FTCAs, FTUCAs, and phase II metabolites were quantified by internal calibration. Because internal standards were not available, monoPAPs and diPAPs were quantified by standard addition. We performed spike and recovery experments to validate the extraction and quantification techniques used (for details, see Supplemental Material).
(§5) Analyte and matrix specific limits of detection (LODs) and limits of quantification (LOQs) are provided in Supplemental Material (doi:10.1289/ehp.1002409). For the purpose of calculating means, values < LOD were assigned a value of zero, and values < LOQ but > LOD were used unaltered but are indicated by asterisks in figures and parentheses in tables. Values are presented using the arithmetic mean ± SE. Full data sets are available in Supplemental Material. […]

[2] = Elimination experiment: diPAP mixture by IV injection, analytes in whole blood; type: in vivo, Sprague-Dawley rats; details: for Half-life / Tmax / Cmax (ng/g) / Cmax: diPAP IV dose, whole blood; for Half-life: about 15 mg/kg each; for Half-life / Cmax (ng/g) / Cmax: mean ± SE; for Cmax (ng/g) / Cmax: values in parentheses < LOQ but > LOD
Method: as §1
(§6) Two groups of four 8-week-old male rats were administered a mixture of 4:2, 6:2, 8:2, and 10:2 diPAP or monoPAP, respectively, each at about 15 mg/kg, at 2 mL/kg by intravenous (IV) injection into the lateral tail vein. The dosing vehicle was 50:50 propylene glycol:water. Two control male rats were administered clean vehicle at 2 mL/kg [for details see Supplemental Material, Table 3 (doi:10.1289/ehp.1002409)].
as §3, §4, §5

[3] = Elimination experiment: monoPAP mixture by IV injection, analytes in whole blood; type: in vivo, Sprague-Dawley rats; details: for Half-life / Cmax / Tmax: monoPAP IV dose; for Half-life: about 15 mg/kg each, PFCA product in whole blood; for Cmax / Tmax: whole blood
Method: as §1, §6, §3, §4
(§7) Analyte and matrix specific limits of detection (LODs) and limits of quantification (LOQs) are provided in Supplemental Material (doi:10.1289/ehp.1002409). For the purpose of calculating means, values < LOD were assigned a value of zero, and values < LOQ but > LOD were used unaltered but are indicated by asterisks in figures and parentheses in tables. Values are presented using the arithmetic mean ± SE. Full data sets are available in Supplemental Material.

[4] = Uptake experiment: monoPAP mixture by oral gavage, analytes in whole blood; type: in vivo, Sprague-Dawley rats; details: for Tmax / Cmax / Cmax (ng/g): whole blood; for Cmax / Cmax (ng/g): values in parentheses < LOQ but > LOD
Method: as §1, §2, §3, §4, §7

[5] = parameters: method as in Chang et al. 2008; Ohmori et al. 2003; details: male rats; ref Chang et al. 2008; Ohmori et al. 2003; cited from earlier work
[6] = Renal elimination: analytes in urine collected in metabolic cages; type: in vivo, Sprague-Dawley rats
Method: as §1, with “4°C. […]” for “4°C.”
as §4, with “For full analytical details, see Supplemental Material.” left out, “We performed spike and recovery experments to validate the extraction and quantification techniques used (for details, see Supplemental Material).” left out

[7] = male, Sprague-Dawley, rat, in vivo, 15 mg/kg, read-out: Cmax
[8] = male, Sprague-Dawley, rat, in vivo, 15 mg/kg, read-out: Tmax (converted)

O=C(O)CC(F)(F)C(F)(F)C(F)(F)C(F)(F)C(F)(F)C(F)(F)C(F)(F)C(F)(F)C(F)(F)C(F)(F)F [10:2 FTCA]
Detection in blood (time points) ([1]; after diPAP oral gavage): present in the blood at the 6-hr time point
Detection in blood (time points) ([2]; after IV diPAP dosing): only in the sample collected 2 days after dosing

O=C(O)C(F)(F)C(F)(F)C(F)(F)C(F)(F)C(F)(F)F [PFHxA, perfluorohexanoic acid]
Half-life [3]: 5.52 ± 5.52 h
Cmax [3]: 5.6 ± 1.3 ng/g
Tmax [3]: 4 h
Half-life [1]: 101 ± 31.2 h
Tmax [1]: 4 h
Cmax [1]: 10 ± 1.2 ng/g
Half-life [2]: 43.2 ± 12.2 h
Tmax [2]: 1 day days
Cmax (ng/g) [2]: (3.0 ± 1.0) ^d ng/g
Tmax ([4]; monoPAP gavage dose): 4 h
Cmax ([4]; monoPAP gavage dose): 7.4 ± 1.5 ng/g
Serum half-lives [5]: on the order of hours

O=C(O)C(F)(F)C(F)(F)C(F)(F)C(F)(F)C(F)(F)C(F)(F)F [PFHpA, perfluoroheptanoic acid]
Cmax [3, 7]: 2.3 ± 0.7 ng/g
Tmax [3, 8]: 24 h
Cmax ([1]; male, Sprague-Dawley, rat, in vivo, po, 50 mg/kg, read-out: Cmax): 2.6 ± 0.5 ng/g
Tmax ([1]; male, Sprague-Dawley, rat, in vivo, po, 50 mg/kg, read-out: Tmax (converted)): 24 h
Cmax [2, 7]: 7.3 ± 0.6 ng/g
Tmax [2, 8]: 4 h
Tmax ([4]; male, Sprague-Dawley, rat, in vivo, po, 50 mg/kg, monoPAP gavage dose, read-out: Tmax (converted)): 24 h
Cmax ([4]; male, Sprague-Dawley, rat, in vivo, po, 50 mg/kg, monoPAP gavage dose, read-out: Cmax): 9 ± 2.2 ng/g

O=C(O)[C@H]1O[C@@H](OCCC(F)(F)C(F)(F)C(F)(F)C(F)(F)C(F)(F)C(F)(F)F)[C@H](O)[C@@H](O)[C@@H]1O [6:2 FTOH-glucuronide]
Detection in blood (time points) ([4]; rat, in vivo, po): observed at 2 hr and 6 hr postdosing

O=C(O)CC(F)(F)C(F)(F)C(F)(F)C(F)(F)F [4:2 FTCA]
Detection in blood (time points) ([3]; after monoPAP IV dosing): 2 hr postdosing
Detection in blood (time points) ([1]; after diPAP oral gavage): 6 hr postdosing, but in only one animal

O=C(O)C(F)(F)C(F)(F)C(F)(F)C(F)(F)C(F)(F)C(F)(F)C(F)(F)C(F)(F)F [PFNA, perfluorononanoate]
Cmax [3]: 2.3 ± 0.4 ng/g
Tmax [3]: 360 h
Tmax [1]: 190 h
Cmax [1]: 6.4 ± 5.2 ng/g
Tmax [2]: 360 h
Cmax (ng/g) [2]: (4.1 ± 3.3) ng/g
Tmax ([4]; monoPAP gavage dose): 1 day days
Cmax (ng/g) ([4]; monoPAP gavage dose): (1.5 ± 0.09) ng/g

O=C(O)CCC(F)(F)C(F)(F)C(F)(F)C(F)(F)C(F)(F)F [5:3 FTCA]
Detection in blood (time points) ([3]; after monoPAP IV dosing): observed in the 2, 4, and 6-hr time points
Detection in blood (time points) ([2]; after IV diPAP dosing): in the samples from 2 hr to 2 days postdosing
Detection in blood (time points) ([4]; after monoPAP oral gavage): present in all of the samples from 2 hr to 2 days postdosing

O=C(O)C=C(F)C(F)(F)C(F)(F)C(F)(F)F [4:2 FTUCA]
Detection in blood (time points) ([3]; rat, in vivo, iv): 2 hr postdosing
Detection in blood (time points) ([1]; rat, in vivo, po): 6 hr postdosing, but in only one animal

O=C(O)CC(F)(F)C(F)(F)C(F)(F)C(F)(F)C(F)(F)C(F)(F)F [6:2 FTCA]
Detection in blood (time points) ([3]; after monoPAP IV dosing): 2 hr postdosing
Detection in blood (time points) ([1]; after diPAP oral gavage): 6 hr postdosing, but in only one animal
Detection in blood (time points) ([4]; after monoPAP oral gavage): blood samples taken 2, 4, and 6 hr postdosing

O=C(O)C(F)(F)C(F)(F)C(F)(F)C(F)(F)C(F)(F)C(F)(F)C(F)(F)C(F)(F)C(F)(F)F [PFDA, perfluorodecanoate]
Half-life [3]: 312 ± 220 h
Cmax [3]: 0.93 ± 0.20 ng/g
Tmax [3]: 360 h
Half-life [1]: 264 ± 48 h
Tmax [1]: 1 day days
Cmax [1]: 3.6 ± 0.6 ng/g
Half-life [2]: 240 ± 48 h
Tmax [2]: 48 h
Cmax [2]: 6.2 ± 1.2 ng/g
Half-life ([4]; monoPAP gavage dose, about 50 mg/kg each, PFCA product in whole blood): 288 ± 190 h
Tmax ([4]; monoPAP gavage dose): 48 h
Cmax (ng/g) ([4]; monoPAP gavage dose): (1.1 ± 0.27) ng/g

O=C(O)CC(F)(F)C(F)(F)C(F)(F)C(F)(F)C(F)(F)C(F)(F)C(F)(F)C(F)(F)F [8:2 FTCA]
Detection in blood (time points) ([1]; after diPAP oral gavage): 6 hr postdosing, but in only one animal
Detection in blood (time points) ([4]; after monoPAP oral gavage): blood samples taken 2, 4, and 6 hr postdosing

O=C(O)C=C(F)C(F)(F)C(F)(F)C(F)(F)C(F)(F)C(F)(F)F [6:2 FTUCA]
Detection in blood (time points) ([3]; rat, in vivo, iv): observed in the 2, 4, and 6-hr time points
Detection in blood (time points) ([1]; rat, in vivo, po): 6 hr postdosing, but in only one animal

O=C(O)C(F)(F)C(F)(F)C(F)(F)C(F)(F)F [PFPeA, perfluoropentanoic acid]
Cmax [3]: 2.1 ± 0.8 ng/g
Tmax [3]: 6 h
Tmax [2]: 2 h
Cmax [2]: 7.1 ± 0.6 ng/g

O=S(=O)(O)OCCC(F)(F)C(F)(F)C(F)(F)C(F)(F)C(F)(F)C(F)(F)C(F)(F)C(F)(F)C(F)(F)C(F)(F)F [10:2 FTOH-sulfate]
Detection in blood (time points) ([1]; after diPAP oral gavage): at 1 and 2 days after dosing
Detection in blood (time points) ([4]; after monoPAP oral gavage): frequently detected between 6 hr and 2 days postdosing

O=C(O)CCC(F)(F)C(F)(F)C(F)(F)C(F)(F)C(F)(F)C(F)(F)C(F)(F)F [7:3 FTCA]
Detection in blood (time points) ([4]; after monoPAP oral gavage): present in all of the samples from 2 hr to 2 days postdosing

O=C(O)[C@H]1O[C@@H](OCCC(F)(F)C(F)(F)C(F)(F)C(F)(F)F)[C@H](O)[C@@H](O)[C@@H]1O [4:2 FTOH-glucuronide]
Detection in blood (time points) ([3]; rat, in vivo, iv): in the blood 2 hr after dosing
Observation in urine ([6]; rat, in vivo): consistently observed
Detection in blood (time points) ([2]; rat, in vivo, iv): in the blood 2 hr postdosing
Detection in blood (time points) ([4]; rat, in vivo, po): observed at 2 hr and 6 hr postdosing

O=S(=O)(O)OCCC(F)(F)C(F)(F)C(F)(F)C(F)(F)F [4:2 FTOH-sulfate]
Detection in blood (time points) ([3]; after monoPAP IV dosing): in the blood 2 hr after dosing
Observation in urine ([6]; urine samples from all dosing regimes): consistently observed
Detection in blood (time points) ([2]; after IV diPAP dosing): in the blood 2 hr postdosing

O=C(O)C(F)(F)C(F)(F)C(F)(F)F [PFBA, perfluorobutanoic acid]
Half-life [3]: 12.7 ± 3.6 h
Cmax [3]: 7.3 ± 1.3 ng/g
Tmax [3]: 6 h
Tmax [1]: 1 day days
Cmax [1]: 3.8 ± 1.0 ng/g
Half-life [2]: 79.2 ± 28.8 h
Tmax [2]: 1 day days
Cmax [2]: 20 ± 5 ng/g
Tmax ([4]; monoPAP gavage dose): 1 day days
Cmax ([4]; monoPAP gavage dose): 9.7 ± 1.9 ng/g
Serum half-lives [5]: on the order of hours

O=S(=O)(O)OCCC(F)(F)C(F)(F)C(F)(F)C(F)(F)C(F)(F)C(F)(F)C(F)(F)C(F)(F)F [8:2 FTOH-sulfate]
Detection in blood (time points) ([4]; after monoPAP oral gavage): frequently detected between 6 hr and 2 days postdosing
